These results are taken from patent US20250186541A1, “DLL3 TARGETING PEPTIDES AND CONSTRUCTS THEREOF” (MARIANA ONCOLOGY INC., priority 2023, published 2025).

B1: Cpd #8 (peptide)
peptide: Ac-[dA]SDCWLQWNCPFD-NH2
modifications: disulfide 4-10
B2: Cpd #9 (peptide)
peptide: Ac-M[dA]DCWLQWNCPFD-NH2
modifications: disulfide 4-10
SMILES: CSCC[C@H](NC(C)=O)C(=O)N[C@H](C)C(=O)N[C@@H](CC(=O)O)C(=O)N[C@H]1CSSC[C@@H](C(=O)N2CCC[C@H]2C(=O)N[C@@H](Cc2ccccc2)C(=O)N[C@@H](CC(=O)O)C(N)=O)NC(=O)[C@H](CC(N)=O)NC(=O)[C@H](Cc2c[nH]c3ccccc23)NC(=O)[C@H](CCC(N)=O)NC(=O)[C@H](CC(C)C)NC(=O)[C@H](Cc2c[nH]c3ccccc23)NC1=O
B3: Cpd #12 (peptide)
peptide: Ac-MSDCW[dA]QWNCPFD-NH2
modifications: disulfide 4-10
SMILES: CSCC[C@H](NC(C)=O)C(=O)N[C@@H](CO)C(=O)N[C@@H](CC(=O)O)C(=O)N[C@H]1CSSC[C@@H](C(=O)N2CCC[C@H]2C(=O)N[C@@H](Cc2ccccc2)C(=O)N[C@@H](CC(=O)O)C(N)=O)NC(=O)[C@H](CC(N)=O)NC(=O)[C@H](Cc2c[nH]c3ccccc23)NC(=O)[C@H](CCC(N)=O)NC(=O)[C@@H](C)NC(=O)[C@H](Cc2c[nH]c3ccccc23)NC1=O
B4: Cpd #10 (peptide)
peptide: Ac-MS[dA]CWLQWNCPFD-NH2
modifications: disulfide 4-10
SMILES: CSCC[C@H](NC(C)=O)C(=O)N[C@@H](CO)C(=O)N[C@H](C)C(=O)N[C@H]1CSSC[C@@H](C(=O)N2CCC[C@H]2C(=O)N[C@@H](Cc2ccccc2)C(=O)N[C@@H](CC(=O)O)C(N)=O)NC(=O)[C@H](CC(N)=O)NC(=O)[C@H](Cc2c[nH]c3ccccc23)NC(=O)[C@H](CCC(N)=O)NC(=O)[C@H](CC(C)C)NC(=O)[C@H](Cc2c[nH]c3ccccc23)NC1=O

Numbered stars: 1 amine (or outer) side, 2 acyl side, 3 side chain; on linkers, the order of the positions; unused ones are H or OH. Bridge positions count the residues as written; N and C are the ends. Square brackets hold non-standard residues; d marks the D form. Peptide text beside a SMILES is read from it. * marks the point of attachment. Ala(1-CH2CO2H-4-piperidyl) = N[C@@H](CC1CCN(CC(=O)O)CC1)C(=O)O; Ala(piperidin-4-yl) = O=C([C@H](CC1CCN([*:3])CC1)N[*:1])[*:2]; DOTA = O=C(O)CN1CCN(CC(=O)O)CCN(CC(=O)*)CCN(CC(=O)O)CC1; Phe(4-CH2NH2) = NCc1ccc(C[C@H](N)C(=O)O)cc1; 1Nal = N[C@@H](Cc1cccc2ccccc12)C(=O)O; 2Nal = N[C@@H](Cc1ccc2ccccc2c1)C(=O)O; tBuAla = CC(C)(C)C[C@H](N)C(=O)O; dAllylGly = C=CC[C@@H](N)C(=O)O; αMeD = C[C@](N)(CC(=O)O)C(=O)O; AllylGly = C=CC[C@H](N)C(=O)O; αMeP = C[C@@]1(C(=O)O)CCCN1

For one assay, the target named is T1, human DLL3 (Homo sapiens, UniProt Q9NYJ7).
T1 construct: biotin (biotinylated)
T1 sequence (Q9NYJ7 27-618): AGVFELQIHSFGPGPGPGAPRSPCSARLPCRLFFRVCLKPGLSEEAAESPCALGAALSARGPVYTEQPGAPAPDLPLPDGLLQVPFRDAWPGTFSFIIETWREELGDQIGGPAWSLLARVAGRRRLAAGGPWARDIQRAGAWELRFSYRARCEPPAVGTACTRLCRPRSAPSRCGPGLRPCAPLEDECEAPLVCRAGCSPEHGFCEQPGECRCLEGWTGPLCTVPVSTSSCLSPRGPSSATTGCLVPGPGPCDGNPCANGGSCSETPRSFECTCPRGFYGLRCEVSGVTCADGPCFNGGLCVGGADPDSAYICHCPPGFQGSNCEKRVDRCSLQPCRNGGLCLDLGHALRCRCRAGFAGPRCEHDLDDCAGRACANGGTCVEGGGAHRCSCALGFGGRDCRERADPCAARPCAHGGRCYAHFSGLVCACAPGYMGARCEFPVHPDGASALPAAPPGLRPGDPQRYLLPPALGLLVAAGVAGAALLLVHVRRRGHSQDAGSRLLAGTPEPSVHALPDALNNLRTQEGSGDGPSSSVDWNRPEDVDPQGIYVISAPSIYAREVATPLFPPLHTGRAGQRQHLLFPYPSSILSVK
Briefly: Affinity determination by Surface Plasmon Resonance (SPR), Biacore, 1:1 binding model. To be noted: biotinylated human DLL3 on streptavidin chip, 25° C.; NB = nonbinding. In short, it runs like this:
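SPR with biotinylated human DLL3 captured on a streptavidin chip, with a reference surface subtracted. Samples were injected at several concentrations at 100 μL/min in phosphate buffer with 137 mM NaCl, 2.7 mM KCl, 0.05% P20 and 2% DMSO. Kinetic and affinity constants came from a 1:1 binding fit.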
In general terms: SPR reads the build-up and loss of mass on a sensor chip optically.
For the molecule `CC(=O)N[C@@H](CC1CCN(CC(=O)O)CC1)C(=O)N[C@@H](CO)C(=O)N[C@@](C)(CC(=O)O)C(=O)N[C@H]1C/C=C/C[C@@H](C(=O)N2CCC[C@@]2(C)C(=O)N[C@@H](Cc2ccccc2)C(=O)N[C@@H](CC(=O)O)C(N)=O)NC(=O)[C@H](CC(N)=O)NC(=O)[C@H](Cc2ccc3ccccc3c2)NC(=O)[C@H](Cc2ccc(CNC(=O)CN3CCN(CC(=O)O)CCN(CC(=O)O)CCN(CC(=O)O)CC3)cc2)NC(=O)[C@H](CC(C)(C)C)NC(=O)[C@H](Cc2cccc3ccccc23)NC1=O` [compound 208, Ac-[3-(piperidinyl-4-CH2CO2H)-Ala]-S-(aMe-Asp)-AllyG(4)-(1Nal)-(t-Bu-Ala)-[PAF(DOTA)]-(2Nal)-N-AllyG(4)-(aMe-P)-F-D-CONH2] (Ac-[Ala(1-CH2CO2H-4-piperidyl)]S[αMeD][AllylGly][1Nal][tBuAla][Phe(4-CH2NH2)](DOTA)[2Nal]N[AllylGly][αMeP]FD-NH2; staple (E) 4-10), the equilibrium dissociation constant (Kd) (usually the equilibrium constant for the complex coming apart) stood at 0.386 nM.

For `CC(=O)N[C@@H](CC1CCNCC1)C(=O)N[C@@H](CO)C(=O)N[C@@H](CC(=O)O)C(=O)N[C@H]1CCCC[C@@H](C(=O)N2CCC[C@@]2(C)C(=O)N[C@@H](Cc2ccccc2)C(=O)N[C@@H](CC(=O)O)C(N)=O)NC(=O)[C@H](CC(N)=O)NC(=O)[C@H](Cc2ccc3ccccc3c2)NC(=O)[C@H](Cc2ccc(CNC(=O)CN3CCN(CC(=O)O)CCN(CC(=O)O)CCN(CC(=O)O)CC3)cc2)NC(=O)[C@H](CC(C)(C)C)NC(=O)[C@H](Cc2cccc3ccccc23)NC1=O` [compound 209, Ac-[3-(4-piperidinyl)-Ala]-S-D-AllyG(4)*-(1Nal)-(t-Bu-Ala)-[PAF(DOTA)]-(2Nal)-N-AllyG(4)*-(aMe-P)-F-D-CONH2], the equilibrium dissociation constant (Kd) stood at 0.591 nM. For `CC(=O)N[C@@H](CC1CCNCC1)C(=O)N[C@@H](CO)C(=O)N[C@@H](CC(=O)O)C(=O)N[C@@H]1C/C=C/C[C@@H](C(=O)N2CCC[C@@]2(C)C(=O)N[C@@H](Cc2ccccc2)C(=O)N[C@@H](CC(=O)O)C(N)=O)NC(=O)[C@H](CC(N)=O)NC(=O)[C@H](Cc2ccc3ccccc3c2)NC(=O)[C@H](Cc2ccc(CNC(=O)CN3CCN(CC(=O)O)CCN(CC(=O)O)CCN(CC(=O)O)CC3)cc2)NC(=O)[C@H](CC(C)(C)C)NC(=O)[C@H](Cc2cccc3ccccc23)NC1=O` [compound 210, Ac-[3-(4-piperidinyl)-Ala]-S-D-D-AllyG(4)-(1Nal)-(t-Bu-Ala)-[PAF(DOTA)]-(2Nal)-N-AllyG(4)-(aMe-P)-F-D-CONH2] (Ac-[Ala(piperidin-4-yl)]SD[dAllylGly][1Nal][tBuAla][Phe(4-CH2NH2)](DOTA)[2Nal]N[AllylGly][αMeP]FD-NH2; staple (E) 4-10), the dissociation constant (Kd) is greater than 100 nM. The molecule `CC(=O)N[C@@H](CC1CCNCC1)C(=O)N[C@@H](CO)C(=O)N[C@@H](CC(=O)O)C(=O)N[C@H]1C/C=C\C[C@H](C(=O)N2CCC[C@@]2(C)C(=O)N[C@@H](Cc2ccccc2)C(=O)N[C@@H](CC(=O)O)C(N)=O)NC(=O)[C@H](CC(N)=O)NC(=O)[C@H](Cc2ccc3ccccc3c2)NC(=O)[C@H](Cc2ccc(CNC(=O)CN3CCN(CC(=O)O)CCN(CC(=O)O)CCN(CC(=O)O)CC3)cc2)NC(=O)[C@H](CC(C)(C)C)NC(=O)[C@H](Cc2cccc3ccccc23)NC1=O` [compound 211, Ac-[3-(4-piperidinyl)-Ala]-S-D-AllyG(4)-(1Nal)-(t-Bu-Ala)-[PAF(DOTA)]-(2Nal)-N-D-AllyG(4)-(aMe-P)-F-D-CONH2] (Ac-[Ala(piperidin-4-yl)]SD[AllylGly][1Nal][tBuAla][Phe(4-CH2NH2)](DOTA)[2Nal]N[dAllylGly][αMeP]FD-NH2; staple (Z) 4-10) registered an equilibrium dissociation constant (Kd) greater than 100 nM. `CC(=O)N[C@@H](CC1CCNCC1)C(=O)N[C@@H](CO)C(=O)N[C@@H](CC(=O)O)C(=O)N[C@@H]1C/C=C/C[C@H](C(=O)N2CCC[C@@]2(C)C(=O)N[C@@H](Cc2ccccc2)C(=O)N[C@@H](CC(=O)O)C(N)=O)NC(=O)[C@H](CC(N)=O)NC(=O)[C@H](Cc2ccc3ccccc3c2)NC(=O)[C@H](Cc2ccc(CNC(=O)CN3CCN(CC(=O)O)CCN(CC(=O)O)CCN(CC(=O)O)CC3)cc2)NC(=O)[C@H](CC(C)(C)C)NC(=O)[C@H](Cc2cccc3ccccc23)NC1=O` [compound 212, Ac-[3-(4-piperidinyl)-Ala]-S-D-D-AllyG(4)-(1Nal)-(t-Bu-Ala)-[PAF(DOTA)]-(2Nal)-N-D-AllyG(4)-(aMe-P)-F-D-CONH2] (Ac-[Ala(piperidin-4-yl)]SD[dAllylGly][1Nal][tBuAla][Phe(4-CH2NH2)](DOTA)[2Nal]N[dAllylGly][αMeP]FD-NH2; staple (E) 4-10) showed a Kd greater than 100 nM. Molecule `CC(=O)N[C@@H](CO)C(=O)N[C@@](C)(CC(=O)O)C(=O)N[C@H]1CCCC[C@@H](C(=O)N2CCC[C@@]2(C)C(=O)N[C@@H](Cc2ccccc2)C(=O)N[C@@H](CC(=O)O)C(N)=O)NC(=O)[C@H](CC(N)=O)NC(=O)[C@H](Cc2ccc3ccccc3c2)NC(=O)[C@H](Cc2ccc(CNC(=O)CN3CCN(CC(=O)O)CCN(CC(=O)O)CCN(CC(=O)O)CC3)cc2)NC(=O)[C@H](CC(C)(C)C)NC(=O)[C@H](Cc2cccc3ccccc23)NC1=O` [compound 213, Ac-S-(aMe-Asp)-AllyG(4)*-(1Nal)-(t-Bu-Ala)-[PAF(DOTA)]-(2Nal)-N-AllyG(4)*-(aMe-P)-F-D-CONH2] had a Kd of 0.419 nM. Consider “Ac-(Chg)-S-D-C(3)-(1Nal)-(THPG)-Q-W-N-C(3)-(aMe-P)-F-D-D-Lys(DOTA)-CONH2 [compound 128]”, for which the “SPR KD (nM)” value is “slow kon”.

The next assay deals with T2, Biotinylated human DLL3 (human, UniProt Q9NYJ7 27-492, biotinylated (site not stated)).
T2 construct: also called Delta-like ligand 3; Delta Like Canonical Notch Ligand 3
T2 sequence (looked up): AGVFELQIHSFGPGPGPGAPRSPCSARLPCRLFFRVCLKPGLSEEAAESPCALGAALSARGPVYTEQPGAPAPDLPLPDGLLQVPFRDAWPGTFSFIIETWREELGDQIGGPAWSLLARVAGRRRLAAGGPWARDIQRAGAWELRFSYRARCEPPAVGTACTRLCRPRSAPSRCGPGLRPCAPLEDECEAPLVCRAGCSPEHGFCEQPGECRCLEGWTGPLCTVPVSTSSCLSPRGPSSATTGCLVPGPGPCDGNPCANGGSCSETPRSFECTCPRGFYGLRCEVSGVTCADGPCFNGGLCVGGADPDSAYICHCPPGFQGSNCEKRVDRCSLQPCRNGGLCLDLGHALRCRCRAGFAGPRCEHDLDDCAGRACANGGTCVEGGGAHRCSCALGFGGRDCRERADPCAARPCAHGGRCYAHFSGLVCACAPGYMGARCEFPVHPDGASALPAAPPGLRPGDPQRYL
In words: SPR, biotin-hDLL3 on SA chip.
Settings: not given
In turn, B1 had a Kd of 8.5 nM. B2 yielded a Kd of 35.1 nM.

Molecule B3 displayed a Kd of 63 nM. B4 gave a Kd of 116 nM.
